Reference: patent US20230265151A1, “GIP/GLP1 CO-AGONIST COMPOUNDS” (priority 2020, published 2023)
Like-named read-outs stand apart in the source and are kept apart here. *1 amine or outer side, *2 acyl side, *3 side chain or, on linkers, in order; H or OH if unused. Where a SMILES comes first, the peptide text is derived from it. Side-chain parts run from the residue outwards. [ ]: non-standard residue; d: D form. The star is where a group is joined. Decanoyl(10-(4-HOOC-PhO)) = O=C(O)c1ccc(OCCCCCCCCCC(=O)*)cc1; αMePhe(2-F) = C[C@](N)(Cc1ccccc1F)C(=O)O; γGlu = O=C(O)[C@H](CCC(=O)[*:2])N[*:1]; αMeY = C[C@](N)(Cc1ccc(O)cc1)C(=O)O; αMeL = CC(C)C[C@](C)(N)C(=O)O; Orn = NCCC[C@H](N)C(=O)O; AEEA = NCCOCCOCC(=O)O; Aib = CC(C)(N)C(=O)O

Assays:
Assay type in all cases: cell-based
hGIPR = target: T1, hGIPR (Homo sapiens, UniProt P48546); assay: Functional cAMP formation (HTRF) in HEK-293 clonal cells expressing hGIPR, 0.1% bovine casein, without or with 1.0% human serum albumin; conditions: for Emax: percent of maximal response to GIP(1-42)NH2; for EC50: hGIPR EC50, nM (SEM, n), cAMP, 37° C., 0.1% bovine casein (no human serum albumin), geometric mean
T1 construct: expressed in transfected cells
T1 sequence (P48546 22-466): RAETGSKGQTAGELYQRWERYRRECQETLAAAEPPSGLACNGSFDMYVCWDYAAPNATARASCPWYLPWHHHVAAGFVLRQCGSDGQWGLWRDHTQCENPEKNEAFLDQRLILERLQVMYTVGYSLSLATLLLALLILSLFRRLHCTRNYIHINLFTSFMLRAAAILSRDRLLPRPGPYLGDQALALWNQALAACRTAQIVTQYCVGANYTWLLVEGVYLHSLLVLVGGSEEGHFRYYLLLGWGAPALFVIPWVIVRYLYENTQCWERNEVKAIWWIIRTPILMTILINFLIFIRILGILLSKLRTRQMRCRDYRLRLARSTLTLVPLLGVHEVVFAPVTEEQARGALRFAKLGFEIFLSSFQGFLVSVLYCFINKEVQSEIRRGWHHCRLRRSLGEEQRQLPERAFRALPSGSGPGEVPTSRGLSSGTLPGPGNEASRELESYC
How it was run: (§1)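 Cells were stimulated with peptide for 30 min at 37° C, then intracellular cAMP was measured by competitive HTRF (665/620 nm ratio) and converted to nM using a cAMP standard curve. Relative EC50 and Emax came from four-parameter logistic fits of percent maximal response against peptide concentration.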

hGCGR = target: T2, hGCGR (Homo sapiens, UniProt P47871); assay: Functional cAMP formation (HTRF) in HEK-293 clonal cells expressing hGCGR, 0.1% bovine casein, without or with 1.0% human serum albumin; conditions: hGCGR EC50, nM (SEM, n), cAMP, 37° C.
T2 construct: expressed in transfected cells
How it was run: as §1

hGLP-1R = hGLP-1R (Homo sapiens, UniProt P43220); assay: Functional cAMP formation (HTRF) in HEK-293 clonal cells expressing hGLP-1R, 0.1% bovine casein, without or with 1.0% human serum albumin; design: expressed in transfected cells; conditions: for Emax: percent of maximal response to GLP-1(7-36)NH2; for EC50: hGLP-1R EC50, nM (SEM, n), cAMP, 37° C., 0.1% bovine casein (no human serum albumin), geometric mean
How it was run: as §1

[1] = HEK293, read-out: hGIPR Emax, % ± SEM, cAMP, 37° C., 0.1% bovine casein and 1.0% human serum albumin
[2] = HEK293, read-out: hGIPR Emax, % ± SEM, cAMP, 37° C., 0.1% bovine casein, arithmetic mean
[3] = 0.1% bovine casein (no human serum albumin), geometric mean
[4] = 0.1% bovine casein and 1.0% human serum albumin, geometric mean (SEM, n)
[5] = HEK293, read-out: hGLP-1R Emax, % ± SEM, cAMP, 37° C., 0.1% bovine casein, arithmetic mean

hGLP-1R, sequence (P43220 24-463): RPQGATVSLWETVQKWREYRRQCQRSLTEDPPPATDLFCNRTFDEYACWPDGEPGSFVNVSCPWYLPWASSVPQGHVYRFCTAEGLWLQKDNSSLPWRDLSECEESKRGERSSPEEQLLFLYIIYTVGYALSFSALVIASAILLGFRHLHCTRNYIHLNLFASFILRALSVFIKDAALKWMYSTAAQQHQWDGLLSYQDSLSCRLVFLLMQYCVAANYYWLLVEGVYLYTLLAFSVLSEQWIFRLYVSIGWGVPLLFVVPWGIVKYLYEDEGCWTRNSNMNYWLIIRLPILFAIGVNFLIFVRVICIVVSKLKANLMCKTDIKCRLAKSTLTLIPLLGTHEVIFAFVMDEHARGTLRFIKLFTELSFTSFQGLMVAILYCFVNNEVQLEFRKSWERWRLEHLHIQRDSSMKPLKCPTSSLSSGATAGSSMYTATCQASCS
T2 sequence (P47871 26-477): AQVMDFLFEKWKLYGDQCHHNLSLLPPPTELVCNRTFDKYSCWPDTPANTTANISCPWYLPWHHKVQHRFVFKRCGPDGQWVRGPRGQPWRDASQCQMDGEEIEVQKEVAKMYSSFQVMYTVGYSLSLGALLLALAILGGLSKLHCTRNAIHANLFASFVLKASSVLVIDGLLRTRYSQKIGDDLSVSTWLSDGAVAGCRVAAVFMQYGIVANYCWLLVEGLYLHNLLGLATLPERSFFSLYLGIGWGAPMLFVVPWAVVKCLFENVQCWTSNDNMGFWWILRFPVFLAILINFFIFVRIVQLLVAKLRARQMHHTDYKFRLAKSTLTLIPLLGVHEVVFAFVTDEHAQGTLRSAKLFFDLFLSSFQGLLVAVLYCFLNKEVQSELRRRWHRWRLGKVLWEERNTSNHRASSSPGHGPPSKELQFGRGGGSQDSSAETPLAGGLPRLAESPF

| SMILES | Emax (hGIPR; [1]) | Emax (hGIPR; [2]) | EC50 (hGIPR) | EC50 (hGCGR; [3]) | EC50 (hGCGR; [4]) | Emax (hGLP-1R; HEK293, read-out: hGLP-1R Emax, % ± SEM, cAMP, 37° C., 0.1% bovine casein and 1.0% human serum albumin) | Emax (hGLP-1R; [5]) | EC50 (hGLP-1R) |
| --- | --- | --- | --- | --- | --- | --- | --- | --- |
| CC[C@H](C)[C@H](NC(=O)[C@H](CCCN)NC(=O)[C@H](CC(=O)O)NC(=O)[C@H](CC(C)C)NC(=O)[C@](C)(CC(C)C)NC(=O)[C@@H](NC(=O)C(C)(C)NC(=O)[C@H](Cc1ccc(O)cc1)NC(=O)[C@H](CC(=O)O)NC(=O)[C@H](CO)NC(=O)[C@@H](NC(=O)[C@](C)(Cc1ccccc1F)NC(=O)[C@@H](NC(=O)CNC(=O)[C@H](CCC(=O)O)NC(=O)C(C)(C)NC(=O)[C@@H](N)Cc1ccc(O)cc1)[C@@H](C)O)[C@@H](C)O)[C@@H](C)CC)C(=O)N[C@@H](C)C(=O)N[C@@H](CCC(N)=O)C(=O)NC(C)(C)C(=O)N[C@@H](CCCCNC(=O)COCCOCCNC(=O)CC[C@H](NC(=O)CCCCCCCCCOc1ccc(C(=O)O)cc1)C(=O)O)C(=O)N[C@@H](Cc1ccccc1)C(=O)N[C@H](C(=O)N[C@H](CCC(=O)O)C(=O)N[C@@](C)(Cc1ccc(O)cc1)C(=O)N[C@@H](CC(C)C)C(=O)N[C@H](C(=O)N[C@@H](CCC(=O)O)C(=O)NCC(=O)NCC(=O)N1CCC[C@H]1C(=O)N[C@@H](CO)C(=O)N[C@@H](CO)C(=O)NCC(=O)N[C@@H](C)C(=O)N1CCC[C@H]1C(=O)N1CCC[C@H]1C(=O)N1CCC[C@H]1C(=O)N[C@@H](CO)C(=O)N[C@@H](CCCCNC(=O)COCCOCCNC(=O)CC[C@H](NC(=O)CCCCCCCCCOc1ccc(C(=O)O)cc1)C(=O)O)C(N)=O)[C@@H](C)CC)[C@@H](C)CC [Example 377] (H-Y[Aib]EGT[αMePhe(2-F)]TSDY[Aib]I[αMeL]LD[Orn]IAQ[Aib]K([AEEA-γGlu-Decanoyl(10-(4-HOOC-PhO))])FI[dE][αMeY]LIEGGPSSGAPPPSK([AEEA-γGlu-Decanoyl(10-(4-HOOC-PhO))])-NH2) | 79.4% | 92.8% | 0.0205 nM | > 9950 nM | > 9950 nM | 110% | 100% | 0.356 nM |
| CC[C@H](C)[C@H](NC(=O)[C@H](CC(C)C)NC(=O)[C@](C)(Cc1ccc(O)cc1)NC(=O)[C@@H](CCC(=O)O)NC(=O)[C@@H](NC(=O)[C@H](Cc1ccccc1)NC(=O)[C@H](CCCCNC(=O)COCCOCCNC(=O)CC[C@H](NC(=O)CCCCCCCCCOc1ccc(C(=O)O)cc1)C(=O)O)NC(=O)C(C)(C)NC(=O)[C@H](CCC(N)=O)NC(=O)[C@H](C)NC(=O)[C@H](CCCCNC(=O)COCCOCCNC(=O)CC[C@H](NC(=O)CCCCCCCCCOc1ccc(C(=O)O)cc1)C(=O)O)NC(=O)[C@H](CCCN)NC(=O)[C@H](CC(=O)O)NC(=O)[C@H](CC(C)C)NC(=O)[C@](C)(CC(C)C)NC(=O)[C@@H](NC(=O)C(C)(C)NC(=O)[C@@H](NC(=O)[C@H](CC(=O)O)NC(=O)[C@H](CO)NC(=O)[C@@H](NC(=O)[C@](C)(Cc1ccccc1F)NC(=O)[C@@H](NC(=O)CNC(=O)[C@H](CCC(=O)O)NC(=O)C(C)(C)NC(=O)[C@@H](N)Cc1ccc(O)cc1)[C@@H](C)O)[C@@H](C)O)C(C)C)[C@@H](C)CC)[C@@H](C)CC)C(=O)N[C@@H](CCC(=O)O)C(=O)NCC(=O)NCC(=O)N1CCC[C@H]1C(=O)N[C@@H](CO)C(=O)N[C@@H](CO)C(=O)NCC(=O)N[C@@H](C)C(=O)N1CCC[C@H]1C(=O)N1CCC[C@H]1C(=O)N1CCC[C@H]1C(=O)N[C@@H](CO)C(N)=O [Example 378] | 81.2% | 93.5% | 0.0132 nM | > 9950 nM | > 9950 nM | – | 98.9% | 0.166 nM |
